These results are taken from US9918990B2, “Substituted pyrrolo[2,3-c]pyridines and pyrazolo[3,4-c]pyridines as BET protein inhibitors” (Incyte Corporation, priority 2013, dated 2018).

The target in one assay is BRD4-BD1 (Homo sapiens (Human), UniProt O60885). As to the kind of experiment: BRD4 AlphaScreen assay, BRD4-BD1. In kind it is binding. To be noted: H4Ac4 peptide, 75 min, room temperature, read-out: BRD4 BD-1 enzyme IC50. As to the method: (§1) BRD4-BD1 and BRD4-BD2 assays were conducted in white 384-well polystyrene plate in a final volume of 20 μL for BD1 and 40 μL for BD2. Inhibitors were first serially diluted in DMSO and added to the plate wells before the addition of other reaction components. […] After plate sealing, the plate was incubated in the dark at room temperature for 75 min. before reading on a PHERAstar FS plate reader (BMG Labtech). IC50 determination was performed by fitting the curve of percent control activity versus the log of the inhibitor concentration using the GraphPad Prism 5.0 software.

The subject of the next assay is KMS.12.BM cells. Kind of assay: KMS.12.BM cell viability assay (Cell Titer-GLO, ATP quantitation). The assay is classed as cell-based. To be noted: Homo sapiens, 72 h, 3 days, concentration required for 50% cell death, read-out: KMS cellular IC50. As to the method:
KMS.12.BM cell line (human myeloma) was purchased from JCRB (Osaka, Japan) and maintained in RPMI with 10% FBS culture medium. To measure the cytotoxic activity of the compounds through ATP quantitation, the KMS.12.BM cells are plated in the RPMI culture medium at 5000 cells/well/per 100 μL into a 96-well polystyrene clear black tissue culture plate (Greiner-bio-one through VWR, NJ), in the presence or absence of a concentration range of test compounds. After 3 days, […] Cell Titer-GLO Luminescent (Promega, Madison, Wis.) cell culture agent is added to each well for 10 minutes at room temperature to stabilize the luminescent signal. This determines the number of viable cells in culture based on quantitation of the ATP present, which signals the presence of metabolically active cells. Luminescence is measured with the Top Count 384 (Packard Bioscience through Perkin Elmer, Boston, Mass.). Compound inhibition is determined relative to cells cultured with no drug and the IC50 is reported as the compound concentration required for 50% cell death. IC50 data for the Examples is presented in Table 9 as determined by Assay B1.

The target of the next assay is BRD4-BD2 (Homo sapiens (Human), UniProt O60885). As to the kind of experiment: BRD4 AlphaScreen assay, BRD4-BD2. The assay is classed as binding. The conditions noted are these: H4Ac4 peptide, 75 min, room temperature, read-out: BRD4 BD-2 enzyme IC50. How it is done: as §1

Structures can show the parent of a compound that is named as a salt.

Regarding `Cn1cc(-c2ccc3[nH]c(=O)[nH]c3c2OC2CCC(F)(F)CC2)c2cc[nH]c2c1=O` [Example 23, 4-[(4,4-Difluorocyclohexyl)oxy]-5-(6-methyl-7-oxo-6,7-dihydro-1H-pyrrolo[2,3-c]pyridin-4-yl)-1,3-dihydro-2H-benzimidazol-2-one], the IC50 at BRD4-BD1 is less than 100 nM; in the assay on KMS.12.BM cells it was no more than 1000 nM; on BRD4-BD2, less than 100 nM.
Take `CN(C)C(=O)Cn1cnc2ccc(-c3cn(C)c(=O)c4[nH]ccc34)c(Oc3ccc(F)cc3F)c21` [Example 33, 2-[7-(2,4-Difluorophenoxy)-6-(6-methyl-7-oxo-6,7-dihydro-1H-pyrrolo[2,3-c]pyridin-4-yl)-1H-benzimidazol-1-yl]-N,N-dimethylacetamide]: the 50% inhibitory concentration (IC50) on BRD4-BD1 is less than 100 nM; in the assay on KMS.12.BM cells, no more than 1000 nM; on BRD4-BD2 it was less than 100 nM.
As to `CNC(=O)Cn1cnc2ccc(-c3cn(C)c(=O)c4[nH]ccc34)c(Oc3ccc(F)cc3F)c21` [Example 35, 2-[7-(2,4-Difluorophenoxy)-6-(6-methyl-7-oxo-6,7-dihydro-1H-pyrrolo[2,3-c]pyridin-4-yl)-1H-benzimidazol-1-yl]-N-methylacetamide], the IC50 was less than 100 nM on BRD4-BD1, no more than 1000 nM in the assay with KMS.12.BM cells and less than 100 nM at BRD4-BD2.
As for `COc1c(-c2cn(C)c(=O)c3[nH]ccc23)ccc2c1n(Cc1ccccc1)c(=O)n2C` [Example 44, 3-Benzyl-4-methoxy-1-methyl-5-(6-methyl-7-oxo-6,7-dihydro-1H-pyrrolo[2,3-c]pyridin-4-yl)-1,3-dihydro-2H-benzimidazol-2-one], the values for the IC50 on BRD4-BD1, in the assay with KMS.12.BM cells and on BRD4-BD2 were less than 100 nM, no more than 1000 nM and less than 100 nM, respectively.
Consider `COc1c(-c2cn(C)c(=O)c3[nH]ccc23)ccc2c1n(CCc1ccccc1)c(=O)n2C` [Example 49, 4-Methoxy-1-methyl-5-(6-methyl-7-oxo-6,7-dihydro-1H-pyrrolo[2,3-c]pyridin-4-yl)-3-(2-phenylethyl)-1,3-dihydro-2H-benzimidazol-2-one], for which the results for the IC50 at BRD4-BD1, in the assay with KMS.12.BM cells and on BRD4-BD2 were 100 to 1000 nM, no more than 1000 nM and less than 100 nM, respectively.
As for `COc1c(-c2cn(C)c(=O)c3[nH]ccc23)ccc2c1n(CCN1CCOCC1)c(=O)n2C` [Example 50, 4-Methoxy-1-methyl-5-(6-methyl-7-oxo-6,7-dihydro-1H-pyrrolo[2,3-c]pyridin-4-yl)-3-(2-morpholin-4-ylethyl)-1,3-dihydro-2H-benzimidazol-2-one], the 50% inhibitory concentration (IC50) at BRD4-BD1 was 100 to 1000 nM; on BRD4-BD2, less than 100 nM.
In the case of `Cn1cc(-c2ccc3c(c2OCC2CCC2)n(CCc2ccccc2)c(=O)n3C)c2cc[nH]c2c1=O` [Example 63, 4-(Cyclobutylmethoxy)-1-methyl-5-(6-methyl-7-oxo-6,7-dihydro-1H-pyrrolo[2,3-c]pyridin-4-yl)-3-(2-phenylethyl)-1,3-dihydro-2H-benzimidazol-2-one], the concentration for half-maximal inhibition (IC50) on BRD4-BD1 is less than 100 nM; with KMS.12.BM cells it was no more than 1000 nM; at BRD4-BD2, less than 100 nM.
Regarding `Cn1cc(-c2ccc3c(c2OCC2CCC2)n(CCC2CCNCC2)c(=O)n3C)c2cc[nH]c2c1=O` [Example 65, 4-(Cyclobutylmethoxy)-1-methyl-5-(6-methyl-7-oxo-6,7-dihydro-1H-pyrrolo[2,3-c]pyridin-4-yl)-3-(2-piperidin-4-ylethyl)-1,3-dihydro-2H-benzimidazol-2-one], the IC50 on BRD4-BD1 was less than 100 nM; in the assay with KMS.12.BM cells it was 1000 to 10000 nM; at BRD4-BD2, less than 100 nM.
As for `Cn1cc(-c2ccc3c(c2OCC2CCC2)n(CCN2CCN(S(C)(=O)=O)CC2)c(=O)n3C)c2cc[nH]c2c1=O` [Example 67, 4-(Cyclobutylmethoxy)-1-methyl-5-(6-methyl-7-oxo-6,7-dihydro-1H-pyrrolo[2,3-c]pyridin-4-yl)-3-{2-[4-(methylsulfonyl)piperazin-1-yl]ethyl}-1,3-dihydro-2H-benzimidazol-2-one], the half-inhibitory concentration (IC50) at BRD4-BD1 was less than 100 nM; in the assay on KMS.12.BM cells, no more than 1000 nM; at BRD4-BD2 it was less than 100 nM.
`C[C@@H]1CN(CCn2c(NCc3ccccc3)nc3c(Oc4ccccc4)c(-c4cn(C)c(=O)c5[nH]ccc45)ccc32)C[C@H](C)O1` [Example 71, 4-(2-(Benzylamino)-1-{2-[(2R,6S)-2,6-dimethylmorpholin-4-yl]ethyl}-4-phenoxy-1H-benzimidazol-5-yl)-6-methyl-1,6-dihydro-7H-pyrrolo[2,3-c]pyridin-7-one trifluoroacetate]: the IC50 at BRD4-BD1 and at BRD4-BD2 was 1000 to 10000 nM throughout.
For the molecule `C[C@@H]1CN(CCn2c(NCC3CC3)nc3c(Oc4ccccc4)c(-c4cn(C)c(=O)c5[nH]ccc45)ccc32)C[C@H](C)O1` [Example 72, 4-(2-[(Cyclopropylmethyl)amino]-1-{2-[(2R,6S)-2,6-dimethylmorpholin-4-yl]ethyl}-4-phenoxy-1H-benzimidazol-5-yl)-6-methyl-1,6-dihydro-7H-pyrrolo[2,3-c]pyridin-7-one trifluoroacetate], the 50% inhibitory concentration (IC50) is 100 to 1000 nM on BRD4-BD1, 1000 to 10000 nM in the assay with KMS.12.BM cells and less than 100 nM at BRD4-BD2.
Turning to `CCOc1c(-c2cn(C)c(=O)c3[nH]ccc23)c(C)nc2cc(C)nn12` [Example 73, 4-(7-Ethoxy-2,5-dimethylpyrazolo[1,5-a]pyrimidin-6-yl)-6-methyl-1,6-dihydro-7H-pyrrolo[2,3-c]pyridin-7-one], the IC50 lay within 1000 to 10000 nM at BRD4-BD1 and 100 to 1000 nM on BRD4-BD2.
With `Cn1cc(-c2cc(CNCCN3CCOCC3)c3[nH]c(=O)[nH]c3c2Oc2ccc(F)cc2F)c2cc[nH]c2c1=O` [Example 79, 4-(2,4-Difluorophenoxy)-5-(6-methyl-7-oxo-6,7-dihydro-1H-pyrrolo[2,3-c]pyridin-4-yl)-7-{[(2-morpholin-4-ylethyl)amino]methyl}-1,3-dihydro-2H-benzimidazol-2-one], the half-inhibitory concentration (IC50) at BRD4-BD1 was 100 to 1000 nM; in the assay with KMS.12.BM cells it was 1000 to 10000 nM; on BRD4-BD2, less than 100 nM.
Consider `Cn1cc(-c2cc(CNCc3ccccc3)c3[nH]c(=O)[nH]c3c2Oc2ccc(F)cc2F)c2cc[nH]c2c1=O` [Example 80, 7-[(Benzylamino)methyl]-4-(2,4-difluorophenoxy)-5-(6-methyl-7-oxo-6,7-dihydro-1H-pyrrolo[2,3-c]pyridin-4-yl)-1,3-dihydro-2H-benzimidazol-2-one], for which the half-maximal inhibitory concentration (IC50) was less than 100 nM at BRD4-BD1, no more than 1000 nM with KMS.12.BM cells and less than 100 nM on BRD4-BD2.
As to `Cn1cnc2c(Oc3ccc(F)cc3F)c(-c3c[nH]c(=O)c4[nH]ccc34)ccc21` [Example 82, 4-[4-(2,4-Difluorophenoxy)-1-methyl-1H-benzimidazol-5-yl]-1,6-dihydro-7H-pyrrolo[2,3-c]pyridin-7-one], the concentration for half-maximal inhibition (IC50) at BRD4-BD1 and at BRD4-BD2 was 100 to 1000 nM each time.
On to `Cn1cnc2c(Oc3ccc(F)cc3F)c(-c3cn(Cc4ccccc4)c(=O)c4[nH]ccc34)ccc21` [Example 84, 6-Benzyl-4-[4-(2,4-difluorophenoxy)-1-methyl-1H-benzimidazol-5-yl]-1,6-dihydro-7H-pyrrolo[2,3-c]pyridin-7-one trifluoroacetate], for which the results for the IC50 at BRD4-BD1 and at BRD4-BD2 were 1000 to 10000 nM and 100 to 1000 nM, respectively.
The corresponding values for `Cn1cnc2c(Oc3ccc(F)cc3F)c(-c3cn(CC#N)c(=O)c4[nH]ccc34)ccc21` [Example 85, {4-[4-(2,4-Difluorophenoxy)-1-methyl-1H-benzimidazol-5-yl]-7-oxo-1,7-dihydro-6H-pyrrolo[2,3-c]pyridin-6-yl}acetonitrile trifluoroacetate] are 1000 to 10000 nM and 100 to 1000 nM.
Turning to `CCS(=O)(=O)c1c(-c2cn(C)c(=O)c3[nH]ccc23)ccc2c1[nH]c(=O)n2C` [Example 99, 4-(Ethylsulfonyl)-1-methyl-5-(6-methyl-7-oxo-6,7-dihydro-1H-pyrrolo[2,3-c]pyridin-4-yl)-1,3-dihydro-2H-benzimidazol-2-one], the IC50 on BRD4-BD1 was 1000 to 10000 nM; on BRD4-BD2, 100 to 1000 nM.
The corresponding values for `Cn1cc(-c2ccc3c(c2Oc2ccccc2)N(Cc2ccccc2)C(=O)CO3)c2cc[nH]c2c1=O` [Example 101, 4-Benzyl-6-(6-methyl-7-oxo-6,7-dihydro-1H-pyrrolo[2,3-c]pyridin-4-yl)-5-phenoxy-2H-1,4-benzoxazin-3(4H)-one] are 100 to 1000 nM and 100 to 1000 nM.
In the case of `Cn1cc(-c2ccc3c(c2Oc2ccccc2)N(CCN2CCOCC2)C(=O)CO3)c2cc[nH]c2c1=O` [Example 102, 6-(6-Methyl-7-oxo-6,7-dihydro-1H-pyrrolo[2,3-c]pyridin-4-yl)-4-(2-morpholin-4-ylethyl)-5-phenoxy-2H-1,4-benzoxazin-3(4H)-one trifluoroacetate], the IC50 is 100 to 1000 nM at BRD4-BD1 and less than 100 nM on BRD4-BD2.
Regarding `Cn1cc(-c2ccc3c(c2Oc2ccccc2)NC(c2ccccc2)CO3)c2cc[nH]c2c1=O` (centres unmarked) [Example 110, 6-Methyl-4-(5-phenoxy-3-phenyl-3,4-dihydro-2H-1,4-benzoxazin-6-yl)-1,6-dihydro-7H-pyrrolo[2,3-c]pyridin-7-one], the concentration for half-maximal inhibition (IC50) is 100 to 1000 nM on BRD4-BD1 and less than 100 nM at BRD4-BD2.
